Assay: Fecal excretion study in rats after oral NS, SF or CNS (LC–MS/MS)
Assay type: in vivo
Conditions: rat feces
Procedure: The animal room was set at constant temperature of 20 ± 2 °C with humidity of 50 ± 20% and 12/12 h light/dark cycle.
Eighteen male rats were fasted for 12 h before starting the experiment. The rats were divided into three groups at random (n = 6) and received NS (60 mg/kg), SF (50 mg/kg), and NS (60 mg/kg) + SF (50 mg/kg), respectively, by oral gavage. The rats were placed in separate metabolic cages. The urine samples were collected at 0–2, 2–4, 4–6, 6–8, 8–12, 12–24, 24–36, 36–48, 48–72, 72–96, and 96–120 h. The feces samples were collected at 0–4, 4–8, 8–12, 12–24, 24–36, 36–48, 48–72, 72–96, and 96–120 h. The urine volume was recorded and the dry feces were measured for each collection period. Samples were stored at −80 °C until analysis.
Feces samples were homogenized in ultrapure water (1 g/15 mL), soaked for 30 min, ultrasonically extracted for 30 min and centrifuged at 9000 rpm for 8 min. An aliquot of 200 μL feces water extraction solution was mixed with 10 μL of IS and then extracted three times with water-saturated n-BuOH (150 μL). The upper organic phase was combined and evaporated to dryness using a ZLS-2 vacuum centrifugal concentrator. The residue was treated as the urine sample and a 1-μL aliquot was injected for LC–MS analysis.
Ultra fast liquid chromatography (UFLC) analysis was performed using a Shimadzu UFLC system (DGU-20A3R Degasser; LC-20AD pump; SIL-20AXR Autosampler; CTO-20AC Column Oven) (Nakagyo-Ku, Koyoto, Japan). […] Because of the different endogenous substances in the urine and feces samples, different elution gradients were used to alleviate the matrix effects for the analytes.
The mass spectrometric detection was performed on an ABSciex 4500 Qtrap mass spectrometer (ABSciex, Foster City, CA, USA) equipped with a negative electrospray ionization (ESI) interface using multiple reaction monitoring (MRM). The MS parameters were optimized under the selected ion monitoring conditions as follows: curtain gas, 35 psi; ionspray voltage, 4500 V; turbo gas temperature, 450 °C; GS1, 45 psi; GS2, 45 psi. All data were acquired and analyzed by Analyst software (Versions 1.6.2) from ABSciex.
The accumulative excretion percentage was calculated for each analyte as follows. Excretion at time (t) = [concentration of the analyte (ng/mL) at t] × total urine (or feces) volume (mL) at t. The cumulative excretion up to time t (mg) was expressed as a percent (%) cumulative excretion by dividing by the total amount of the analyte ingested (mg): % Cumulative Excretion = 100 × (Σt excretiont) total ingested.

concentration at 4 h (male, Sprague Dawley, oral CNS 110 mg/kg, 4 h): 1100 ± 1520 ng/mL
concentration at 8 h (male, Sprague Dawley, oral CNS 110 mg/kg, 8 h): 1710 ± 54 ng/mL
concentration at 12 h (male, Sprague Dawley, oral CNS 110 mg/kg, 12 h): 1110 ± 221 ng/mL
concentration at 24 h (male, Sprague Dawley, oral CNS 110 mg/kg, 24 h): 980 ± 138 ng/mL
concentration at 36 h (male, Sprague Dawley, oral CNS 110 mg/kg, 36 h): 959 ± 40 ng/mL
concentration at 48 h (male, Sprague Dawley, oral CNS 110 mg/kg, 48 h): 943 ± 49 ng/mL
concentration at 72 h (male, Sprague Dawley, oral CNS 110 mg/kg, 72 h): 324 ± 249 ng/mL
concentration at 96 h (male, Sprague Dawley, oral CNS 110 mg/kg, 96 h): 24 ± 24 ng/mL
concentration at 4 h (male, Sprague Dawley, oral NS 60 mg/kg, 4 h): 1510 ± 256 ng/mL
concentration at 8 h (male, Sprague Dawley, oral NS 60 mg/kg, 8 h): 473 ± 16 ng/mL
concentration at 12 h (male, Sprague Dawley, oral NS 60 mg/kg, 12 h): 1090 ± 88 ng/mL
concentration at 24 h (male, Sprague Dawley, oral NS 60 mg/kg, 24 h): 2040 ± 55 ng/mL
concentration at 36 h (male, Sprague Dawley, oral NS 60 mg/kg, 36 h): 2020 ± 54 ng/mL
concentration at 48 h (male, Sprague Dawley, oral NS 60 mg/kg, 48 h): 2080 ± 47 ng/mL
concentration at 72 h (male, Sprague Dawley, oral NS 60 mg/kg, 72 h): 116 ± 8 ng/mL
concentration at 96 h (male, Sprague Dawley, oral NS 60 mg/kg, 96 h): 23 ± 1 ng/mL
concentration at 120 h (male, Sprague Dawley, oral NS 60 mg/kg, 120 h): 22 ± 2 ng/mL
Accumulative excretion amount (oral CNS 110 mg/kg, 4 h): 14.286 ± 20.907 µg
Accumulative excretion percentage (oral CNS 110 mg/kg, 4 h): 0.474±0.681%
Excretion amount (oral CNS 110 mg/kg, 4 h): 14.286 ± 20.907 µg
Accumulative excretion amount (oral CNS 110 mg/kg, 8 h): 39.952 ± 21.244 µg
Accumulative excretion percentage (oral CNS 110 mg/kg, 8 h): 1.303±0.695%
Accumulative excretion amount (oral CNS 110 mg/kg, 12 h): 56.860 ± 20.559 µg
Excretion amount (oral CNS 110 mg/kg, 12 h): 16.908 ± 6.636 µg
Accumulative excretion amount (oral CNS 110 mg/kg, 24 h): 71.363 ± 24.096 µg
Accumulative excretion percentage (oral CNS 110 mg/kg, 24 h): 2.331±0.796%
Excretion amount (oral CNS 110 mg/kg, 24 h): 14.504 ± 4.143 µg
Accumulative excretion amount (oral CNS 110 mg/kg, 36 h): 85.729 ± 27.211 µg
Accumulative excretion percentage (oral CNS 110 mg/kg, 36 h): 2.802±0.894%
Excretion amount (oral CNS 110 mg/kg, 36 h): 14.365 ± 4.335 µg
Accumulative excretion amount (oral CNS 110 mg/kg, 48 h): 99.901 ± 30.374 µg
Accumulative excretion percentage (oral CNS 110 mg/kg, 48 h): 3.265±0.994%
Excretion amount (oral CNS 110 mg/kg, 48 h): 14.173 ± 4.533 µg
Accumulative excretion amount (oral CNS 110 mg/kg, 72 h): 105.113 ± 30.466 µg
Accumulative excretion percentage (oral CNS 110 mg/kg, 72 h): 3.431±0.996%
Excretion amount (oral CNS 110 mg/kg, 72 h): 5.212 ± 4.367 µg
Accumulative excretion amount (oral CNS 110 mg/kg, 96 h): 105.509 ± 30.482 µg
Accumulative excretion percentage (oral CNS 110 mg/kg, 96 h): 3.441±0.996%
Excretion amount (oral CNS 110 mg/kg, 96 h): 0.396 ± 0.402 µg
Accumulative excretion amount (oral CNS 110 mg/kg, 120 h): 105.509 ± 30.482 µg
Accumulative excretion percentage (oral CNS 110 mg/kg, 120 h): 3.442±0.994%
Accumulative excretion amount (oral NS 60 mg/kg, 4 h): 21.063 ± 5.410 µg
Accumulative excretion percentage (oral NS 60 mg/kg, 4 h): 0.612±0.145%
Excretion amount (oral NS 60 mg/kg, 4 h): 21.063 ± 5.410 µg
Accumulative excretion amount (oral NS 60 mg/kg, 8 h): 27.855 ± 7.375 µg
Accumulative excretion percentage (oral NS 60 mg/kg, 8 h): 0.798±0.216%
Excretion amount (oral NS 60 mg/kg, 8 h): 6.792 ± 2.122 µg
Accumulative excretion percentage (oral NS 60 mg/kg, 12 h): 1.244±0.343%
Excretion amount (oral NS 60 mg/kg, 12 h): 15.587 ± 4.879 µg
Accumulative excretion amount (oral NS 60 mg/kg, 24 h): 72.682 ± 20.662 µg
Accumulative excretion percentage (oral NS 60 mg/kg, 24 h): 2.071±0.592%
Excretion amount (oral NS 60 mg/kg, 24 h): 29.239 ± 8.754 µg
Accumulative excretion amount (oral NS 60 mg/kg, 36 h): 101.659 ± 29.524 µg
Accumulative excretion percentage (oral NS 60 mg/kg, 36 h): 2.904±0.845%
Excretion amount (oral NS 60 mg/kg, 36 h): 28.977 ± 8.942 µg
Accumulative excretion amount (oral NS 60 mg/kg, 48 h): 131.700 ± 39.092 µg
Accumulative excretion percentage (oral NS 60 mg/kg, 48 h): 3.751±1.111%
Excretion amount (oral NS 60 mg/kg, 48 h): 30.041 ± 9.594 µg
Accumulative excretion amount (oral NS 60 mg/kg, 72 h): 133.372 ± 39.629 µg
Accumulative excretion percentage (oral NS 60 mg/kg, 72 h): 3.801±1.132%
Excretion amount (oral NS 60 mg/kg, 72 h): 1.673 ± 0.554 µg
Accumulative excretion percentage (oral NS 60 mg/kg, 96 h): 3.814±1.133%
Excretion amount (oral NS 60 mg/kg, 96 h): 0.327 ± 0.104 µg
Accumulative excretion percentage (oral NS 60 mg/kg, 120 h): 3.824±1.132%
Excretion amount (oral NS 60 mg/kg, 120 h): 0.315 ± 0.110 µg
Structure (SMILES): CC(C)=CCC[C@](C)(O[C@@H]1O[C@H](CO)[C@@H](O)[C@H](O)[C@H]1O)[C@H]1CC[C@]2(C)[C@@H]1[C@H](O)C[C@@H]1[C@@]3(C)CC[C@H](O)C(C)(C)[C@@H]3[C@@H](O[C@@H]3O[C@H](CO)[C@@H](O)[C@H](O)[C@H]3O)C[C@]12C [ginsenoside Rg1]

Reference: PMC6321168, “Comparative Study on Excretive Characterization of Main Components in Herb Pair Notoginseng-Safflower and Single Herbs by LC–MS/MS” (Pharmaceutics, 2018)
